The text below walks through data of the supplement of paper PMC10307832.

Assay in all cases: relative viability (nuclei count vs DMSO), 5 days (fraction); higher = more cells survive
Compound in one assay: CC1CC(=O)N(C2=CN=C(N=C2N1C3CCCC3)NC4=C(C=C(C=C4)C(=O)NC5CCN(CC5)C)OC)C [NPK76-II-72-1]
In a few lines: (§1)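 In 1536-well plates, lung cancer cell lines rested overnight at 37 °C before five library-drug doses (not always all listed), √10 apart, were pinned onto vehicle-anchored plates. Nuclei were counted with MetaXpress from 4× Hoechst images taken after 5 days without medium change. Viability compares treated-well with vehicle-well nuclei as a median over plates, and plates needed control CV below 25% plus at least one doubling to pass.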

Compound in the next assay: CC[C@@H]1C(=O)N(C)c2cnc(Nc3ccc(C(=O)NC4CCN(C)CC4)cc3OC)nc2N1C1CCCC1 [BI-2536]
In outline:
as §1

Compound in the assay “BI-2536 + Navitoclax”: CC[C@@H]1C(=O)N(C)c2cnc(Nc3ccc(C(=O)NC4CCN(C)CC4)cc3OC)nc2N1C1CCCC1 [BI-2536] + CC1(C)CCC(c2ccc(Cl)cc2)=C(CN2CCN(c3ccc(C(=O)NS(=O)(=O)c4ccc(N[C@H](CCN5CCOCC5)CSc5ccccc5)c(S(=O)(=O)C(F)(F)F)c4)cc3)CC2)C1 [Navitoclax] (partner 0.5 µM)
In outline:
(§2)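 Lung cancer cell lines in 1536-well plates got either a single drug or a fixed anchor-drug dose together with five library-drug doses (not always all listed) in √10 steps, by pin tool, on the day after seeding. Nuclei were counted after 5 days, and relative viability is the treated-to-vehicle ratio of nuclei counts. Values are medians of duplicate plates.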

Compound in assay [1]: CC1CC(=O)N(C2=CN=C(N=C2N1C3CCCC3)NC4=C(C=C(C=C4)C(=O)NC5CCN(CC5)C)OC)C [NPK76-II-72-1] + CC(=O)Nc1cccc(-n2c(=O)n(C3CC3)c(=O)c3c(Nc4ccc(I)cc4F)n(C)c(=O)c(C)c32)c1 [Trametinib] (partner 0.02 µM)
In outline: as §2

For the cell line LCLC-97TM1, the relative viability was found to be 1.07 with NPK76-II-72-1 (0.01 µM); 1.03 with NPK76-II-72-1 (0.03162 µM); 0.959 with NPK76-II-72-1 (0.1 µM); 0.752 with NPK76-II-72-1 (0.3162 µM); 1.13 in the assay with NPK76-II-72-1 (1 µM); 0.969 in the assay with BI-2536 (0.01 µM). Besides, the relative viability in the assay with BI-2536 (0.03162 µM) stood at 1.01; in the assay with BI-2536 (0.1 µM), 0.813; with BI-2536 (0.3162 µM), 0.129; with BI-2536 (1 µM), 0.0948; with BI-2536 + Navitoclax (first compound 0.01 µM) it was 0.567; with BI-2536 + Navitoclax (first compound 0.03162 µM), 0.564. Further, the relative viability amounted to 0.246 with BI-2536 + Navitoclax (first compound 0.1 µM); 0.121 in the assay with BI-2536 + Navitoclax (first compound 0.3162 µM); 0.142 in the assay with BI-2536 + Navitoclax (first compound 1 µM); 0.203 in assay [1] (first compound 0.01 µM); 0.208 in assay [1] (first compound 0.03162 µM); 0.181 in assay [1] (first compound 0.1 µM). The relative viability in assay [1] (first compound 0.3162 µM) amounted to 0.215; in assay [1] (first compound 1 µM), 0.209.
Consider EPLC-272H, for which the relative viability is 0.96 with NPK76-II-72-1 (0.01 µM); 0.951 in the assay with NPK76-II-72-1 (0.03162 µM); 1.06 with NPK76-II-72-1 (0.1 µM); 0.86 with NPK76-II-72-1 (0.3162 µM); 1.07 with NPK76-II-72-1 (1 µM); 0.852 in the assay with BI-2536 (0.01 µM). Moreover, the relative viability was determined as 0.707 in the assay with BI-2536 (0.03162 µM); 0.117 in the assay with BI-2536 (0.1 µM); 0.26 in the assay with BI-2536 (0.3162 µM); 0.0971 with BI-2536 (1 µM); 1.13 in the assay with BI-2536 + Navitoclax (first compound 0.01 µM); 0.999 in the assay with BI-2536 + Navitoclax (first compound 0.03162 µM). Further, the relative viability stood at 0.0617 with BI-2536 + Navitoclax (first compound 0.3162 µM); 0.0715 in the assay with BI-2536 + Navitoclax (first compound 1 µM); 0.257 in assay [1] (first compound 0.01 µM); 0.246 in assay [1] (first compound 0.03162 µM); 0.252 in assay [1] (first compound 0.1 µM); 0.296 in assay [1] (first compound 0.3162 µM). Moreover, in assay [1] (first compound 1 µM), the relative viability worked out at 0.284.
On to NCI-H1915, for which the relative viability with NPK76-II-72-1 (0.01 µM) is 0.984; with NPK76-II-72-1 (0.03162 µM), 1.1; with NPK76-II-72-1 (0.1 µM) it was 1; in the assay with NPK76-II-72-1 (0.3162 µM) it was 0.882; with NPK76-II-72-1 (1 µM), 0.996; with BI-2536 (0.01 µM), 0.977. Also, the relative viability in the assay with BI-2536 (0.03162 µM) came out at 0.932; with BI-2536 (0.1 µM), 0.544; in the assay with BI-2536 (0.3162 µM), 0.0978; in the assay with BI-2536 (1 µM) it was 0.117; with BI-2536 + Navitoclax (first compound 0.01 µM), 0.781; in the assay with BI-2536 + Navitoclax (first compound 0.03162 µM) it was 0.765. The relative viability in the assay with BI-2536 + Navitoclax (first compound 0.1 µM) came to 0.694; in the assay with BI-2536 + Navitoclax (first compound 0.3162 µM), 0.11; with BI-2536 + Navitoclax (first compound 1 µM) it was 0.0514; in assay [1] (first compound 0.01 µM) it was 0.286; in assay [1] (first compound 0.03162 µM), 0.307; in assay [1] (first compound 0.1 µM), 0.294. Besides, the relative viability in assay [1] (first compound 0.3162 µM) was determined as 0.313; in assay [1] (first compound 1 µM), 0.295.
As to NCI-H2405, the relative viability worked out at 0.986 with NPK76-II-72-1 (0.01 µM); 0.991 with NPK76-II-72-1 (0.03162 µM); 1.03 with NPK76-II-72-1 (0.1 µM); 1.01 with NPK76-II-72-1 (0.3162 µM); 1.05 in the assay with NPK76-II-72-1 (1 µM); 0.965 with BI-2536 (0.01 µM). Besides, the relative viability in the assay with BI-2536 (0.03162 µM) turned out to be 0.918; with BI-2536 (0.1 µM), 0.465; with BI-2536 (0.3162 µM) it was 0.279; with BI-2536 (1 µM), 0.406; with BI-2536 + Navitoclax (first compound 0.01 µM), 0.7; in the assay with BI-2536 + Navitoclax (first compound 0.03162 µM), 0.218. For the same cell line, the relative viability with BI-2536 + Navitoclax (first compound 0.1 µM) came out at 0.106; in the assay with BI-2536 + Navitoclax (first compound 0.3162 µM) it was 0.0606; in the assay with BI-2536 + Navitoclax (first compound 1 µM), 0.116; in assay [1] (first compound 0.01 µM) it was 0.662; in assay [1] (first compound 0.03162 µM) it was 0.618; in assay [1] (first compound 0.1 µM), 0.601. The relative viability in assay [1] (first compound 0.3162 µM) stood at 0.59; in assay [1] (first compound 1 µM) it was 0.702.
On to NCI-H322M, for which the relative viability with NPK76-II-72-1 (0.01 µM) amounted to 0.908; in the assay with NPK76-II-72-1 (0.03162 µM), 0.997; with NPK76-II-72-1 (0.1 µM), 1.01; with NPK76-II-72-1 (0.3162 µM), 0.999; with NPK76-II-72-1 (1 µM) it was 1.01; in the assay with BI-2536 (0.01 µM), 0.99. Moreover, the relative viability is 0.889 in the assay with BI-2536 (0.03162 µM); 0.725 with BI-2536 (0.1 µM); 0.497 with BI-2536 (0.3162 µM); 0.298 in the assay with BI-2536 (1 µM); 1.3 in the assay with BI-2536 + Navitoclax (first compound 0.01 µM); 1.29 with BI-2536 + Navitoclax (first compound 0.03162 µM). Also, the relative viability was determined as 1.2 with BI-2536 + Navitoclax (first compound 0.1 µM); 0.608 with BI-2536 + Navitoclax (first compound 0.3162 µM); 0.333 with BI-2536 + Navitoclax (first compound 1 µM); 0.531 in assay [1] (first compound 0.01 µM); 0.492 in assay [1] (first compound 0.03162 µM); 0.472 in assay [1] (first compound 0.1 µM). Also, the relative viability was determined as 0.483 in assay [1] (first compound 0.3162 µM) and 0.557 in assay [1] (first compound 1 µM).
